Values quoted from earlier work, collected in patent EP0072762B1, “Fluorinated diaminoalkene derivatives” (priority 1981, dated 1983).

System: tumor
Settings: administered intravenously once or twice a week, cited from earlier work

For `CC(C=NNC(=N)N)=NNC(=N)N` [MGBG, methylglyoxal bis(guanylhydrazone)], the “complete disappearance of the diseases” value (65 treated patients) is listed as “two of the 65 treated patients” and the “regression of the tumor” value (patients in advanced stages of various carcinomas, lymphoma, leukemia etc.) is listed as “measurable regression of the tumor in many of the patients treated”.
